Experimental data as given in patent US20060035964A1, “Hypoglycemic agent, liver protecting agent and anticancer agent containing lignans originating in hongdoushan” (priority 2002, published 2006).
Converted amounts (≈) assume the structure as drawn.

Legend:
[1] = DPPH free radical scavenging activity; settings: DPPH 60 μM ethanol solution, 30 minutes room temperature, absorbance 520 nm
Protocol: 500 μL of each test compound dissolved in ethanol or aqueous solution was mixed with 500 μL of DPPH (1,1-diphenyl 1-2-picrylhydrazyl) ethanol solution (concentration: 60 μM). The mixtures were left at room temperature for 30 minutes, and then their absorbance was measured at 520 nm. The measurements were carried out for each test compound at different concentrations.

[2] = system: diabetic rats induced by injecting STZ; assay: Decrease activity in blood glucose level in STZ-induced diabetic rats; type: in vivo, rat; settings: STZ diabetic Wistar rats; for Reduction of blood glucose level: 10 mg/kg into abdominal cavity 5 times at 12 h intervals (positive control: tolbutamide 200 mg/kg + buformin 1 mg/kg)
Protocol: Activities of compounds of lignans and hongdoushan fractions in decreasing blood glucose level were assessed by using rats.
Blood serums were obtained after the blood cell separation of the whole blood samples collected from the rats. Measurement of the blood glucose level was carried out by using the blood serum, a Glucose CII-TEST WAKO (manufactured by Wako Pure Chemical Industries, Ltd.) as a reagent and a UV-160A (manufactured by Shimadzu Corporation) as an instrument for absorbance measurement.
Male rats of Wistar strains (age: 5-6 weeks, weight: 180-200 g) kept fast for 16 hours. Then, citrate buffer solution (pH 4.2) of streptozocin (hereinafter called “STZ”) was injected into the rats' abdominal cavity in a dose of 55 mg/kg (weight of rat). Blood samples were taken from the tail vein of the rats 5 days after the injection, to measure blood glucose level. Rats with blood glucose level higher than 250 mg/dL were considered to be diabetic and were used for the tests.
Compounds or fractions were injected into the abdominal cavity of the diabetic rats in a dose of 10 mg/kg (weight of rat) 5 times at intervals of 12 hours. Blood samples were taken from the tail veins of the rats to measure the blood glucose level. Averages and standard deviations of measured values were calculated for groups, each of which had 4 rats. The groups included a negative control group, which was given normal saline solution, and a positive control group of said diabetic rats, which were given a mixture of tolbutamide in a dose of 200 mg/kg (weight of rat) and buformin in a dose of 1 mg/kg (weight of rat) through their abdominal cavity.

[3] = system: D-GalN/LPS-induced hepatic damage in mice; assay: D-GalN/LPS-induced hepatic damage model; type: in vivo, mouse; settings: for GOT level in blood serum / GPT level in blood serum / TNF-α level in blood serum: ddY mice, subcutaneous 10 mg/kg and 50 mg/kg; for GOT level in blood serum / GPT level in blood serum: 12 h and 1 h before D-GalN/LPS, measured 8 hours after injection; for TNF-α level in blood serum: measured 90 minutes after D-GalN/LPS injection, ELISA; for Histopathological observation of hepatic cells (apoptosis): 8 hours after the injection of D-GalN/LPS, compared with control group
Protocol: Evaluation by D-galactosamine (hereinafter called “D-GalN”)/Lipopolysaccharide (hereinafter called “LPS”)-induced hepatic damage model (J. Wang et al., Biochem. Pharm., 39, 267 (1990), A. Wendel et al., Biochem. Pharm., 35, 2115 (1986))
Male mice of ddY strains (age: 6 weeks) kept fast for 12 hours, and then hepatic damage was induced in the mice by injecting D-GalN (700 mg/kg)/LPS (10 μg/kg) into their abdominal cavity. Test compounds were given subcutaneously to the mice 2 times: 12 hours and 1 hour before the injection of D-GalN/LPS. They were arranged into 2 groups which were given test compounds: a group in a dose of 50 mg/kg (weight of rat), and a group in a dose of 10 mg/kg (weight of rat). There were also a control group which was given normal saline solution and a group which was given silymarin, a known hepatoprotective agent, (subcutaneous administration in a dose of 100 mg/kg) for comparison of medicinal benefits.
Tumor necrosis factor alpha (hereinafter called “TNF-α”) level in the blood was measured 90 minutes after the injection of D-GalN/LPS. Furthermore, levels of GPT (glutamic-pyruvic transaminase) and GOT (glutamic oxaloacetic transaminase) in the blood were measured 8 hours after the injection.
TNF-α level was measured by means of the ELISA method using an anti-mouse TNF-α antibody (manufactured by Endogen, Inc., USA), and levels of GPT and GOT were measured by using a Transaminase CII-Test kit (manufactured by Wako Pure Chemical Industries, Ltd.).
The hepatic damage mechanism induced in this damage model is thought to have high correlativity with clinical results as a model of immunological hepatic damage outbreak because of a series of process such as activation of cells involved in immunity, infiltration into hepatic tissues, secretion of cytokine and autocoid such as leukotriene D4 and TNF-α, and apoptosis of hepatic cells.

[4] = system: primary cultured mouse hepatocytes; assay: Inhibitory activity on TNF-α-induced cell death in primary cultured mouse hepatocytes (MTT); type: cell-based; settings: D-galactosamine 0.5 mM + TNF-α 100 ng/mL; compounds at 200, 100, 50 and 10 μM; 18 hours; compared with Control
Protocol: Hepatic parenchymal cells were separated from the lives of male mice of ddY strains by means of a collagenase recirculation method. The separated hepatic parenchymal cells were suspended in the William's E culture medium, which was supplemented with 10% calf blood serum, 100 IU/mL penicillin G, 100 µg/mL streptomycin, 100 μM dexamethasone, and 50 ng/mL insulin, and incubated in a 96-well plastic plate (1.5×10^4 cells/well). The culture medium was replaced with a fresh culture medium containing D-galactosamine (0.5 mM) and lignans after 2-hour pre-incubation. TNF-α (100 ng/mL) was added to each well 30 minutes later. The hepatocytes viability was assessed 18 hours later by means of MTT(3-(4,5-dimethylthiazol-2-yl)-2,5-[…] bromide) colorimetric reaction.
The vertical axis of the graph represents cell viability in percentage. The bar of Normal is cell viability in the TNF-α-untreated culture medium. The bar of Control is cell viability in the test compound-untreated culture medium.
TAX, HYL, SIL, and ITX were treated at 200 μM, 100 μM, 50 μM, and 10 μM in the culture medium. Cell viability of each item is shown in the bar graphs.

[5] = system: human HT-1080 fibrosarcoma cells; assay: Antiproliferative activity against cultured cancer cells (MTT), HT-1080; type: cell-based; settings: for IC50: Homo sapiens, HT-1080, average of 4 wells
Protocol: (§1) Compounds of lignans and hongdoushan fractions were tested for their antiproliferative activity against human HT-1080 fibrosarcoma cells and murine colon 26-L5 carcinoma cells. Human HT-1080 fibrosarcoma cells were cultured in the EMEM medium supplemented with 10% FCS (heat-inactivated fetal calf serum) and 0.1% sodium bicarbonate, and 2 mM glutamine. On the other hand, murine colon 26-L5 carcinoma cells were cultured in the RPMI medium containing the same supplements as in the EMEM medium. Cell viability was determined by means of MTT(3-(4,5-dimethylthiazol-2-yl)-2,5-[…] bromide).
(§2) The cells were cultured in a 96-well plate, which was supplemented with a cell suspension medium solution. In this case, each well had approximately 2,000 cells in 100 μL. The cells grew exponentially during the cultivation.
(§3) Twenty four hours later, when the cells adhered to the plate, the medium solution was removed, and then the cells were treated with a test compound medium solution (100 μL) at various concentrations (100 μg/mL, 50 μg/mL, 10 μg/mL, 5 μg/mL, and 1 μg/mL). The cells were cultured at 37° C. under 5% CO2. In this case, the test compounds were first dissolved in DMSO and then diluted in the medium. The concentration of DMSO was adjusted to be finally below 0.25%.
(§4) Next, the medium solution was removed, and the dissolved MTT (100 μL) was added to the medium. After three-hour incubation of the cells, the amount of the formazan formed was measured spectrophotometrically at 550 nm with a plate reader HTS-7000 (manufactured by Perkin Elmer).

[6] = system: murine colon 26-L5 carcinoma cells; assay: Antiproliferative activity against cultured cancer cells (MTT), colon 26-L5; type: cell-based; settings: for IC50: Mus musculus, average of 4 wells
Protocol: as §1, §2, §3, §4

SMILES	ED50 DPPH free radical scavenging [1] [µg/mL]	Reduction of blood glucose level [2] [%]	Blood glucose level After administration ([2]; after 10 mg/kg into abdominal cavity 5 times at 12 h intervals (positive control: tolbutamide 200 mg/kg + buformin 1 mg/kg), mean ± SD) [mg/dL]	Blood glucose level Before administration ([2]; before administration, mean ± SD, 4 rats) [mg/dL]	GOT level in blood serum [3]	GPT level in blood serum [3]	TNF-α level in blood serum [3]	Cell viability [4]	Antiproliferative activity against HT-1080 (in words) [5]	IC50 [5] [µg/mL]	Antiproliferative activity against Colon 26-L5 (in words) [6]	IC50 [6] [µg/mL]	Histopathological observation of hepatic cells (apoptosis) [3]
O=C(O)/C=C/c1ccc(O)c(O)c1 [Caffeic Acid]	5.41 (≈ 30 µM)												
COc1cc(C[C@H]2CO[C@H](c3ccc(O)c(O)c3)[C@H]2CO)ccc1O [TAX, Taxiresinol]		20.9	250.2 ± 35.5	316.1 ± 19.9	inhibit the increase	inhibit the increase	inhibit the increase	increased cell viability considerably in a dose-dependent manner	showed antiproliferative activity	62.2 (≈ 180 µM)	showed antiproliferative activity	35.2 (≈ 102 µM)	
O=c1[nH]cc(F)c(=O)[nH]1 [5-Fluorouracil, reference compound]										0.29 (≈ 2.23 µM)		0.07 (≈ 0.538 µM)	
COc1cc([C@H]2OC[C@H]([C@@H](O)c3ccc(O)c(OC)c3)[C@@H]2CO)ccc1O [HYL, (7′R)-7′-Hydroxylariciresinol]					inhibit the increase	inhibit the increase	inhibit the increase	results similar to that of TAX		> 100		> 100	
COc1cc(C[C@@H](CO)[C@H](CO)Cc2ccc(O)c(OC)c2)ccc1O [SIL, Secoisolariciresinol]		33.4			inhibit the increase	inhibit the increase	inhibit the increase	results similar to that of TAX	noticeable antiproliferative activity	5.9 (≈ 16.3 µM)		60.2 (≈ 166 µM)	less apoptosis corpuscles in the cells and less concentrated chromatins in the cell nucleuses
COc1cc2c(cc1O)[C@H](c1ccc(O)c(O)c1)[C@@H](CO)[C@H](CO)C2 [ITX, Isotaxiresinol]		23.6			inhibit the increase	inhibit the increase	inhibit the increase	results similar to that of TAX	showed antiproliferative activity	43.8 (≈ 126 µM)	showed antiproliferative activity	36.5 (≈ 105 µM)	less apoptosis corpuscles in the cells and less concentrated chromatins in the cell nucleuses
